# Source: ChEMBL document CHEMBL5661943, “ASAP - In vitro antiviral effect” (2024)
# pEC50: −log10 of the molar value. Several values for one entry are separate records, joined by “and”; a condition that tells them apart may be missing. Equal values may be shown once.
# What was measured:
# [1] = test system: Zika virus; experiment: (§1) Functional immunofluorescence assay to measure dose dependent changes in antiviral-drug inhibitory efficacy against Zika virus PRVABC59 in Vero E6/TMPRSS2 cells. Cells are treated with antiviral candidates that are serially diluted, following infection, cells are fixed. EC50 is reported via analysis of immunofluorescence staining. The assay has been performed by Icahn School of Medicine at Mount Sinai.; format: organism-based, Chlorocebus sabaeus; details: for pEC50: VeroE6/TMPRSS2
# [2] = test system: Zika virus; experiment: EC50 is reported via analysis of immunofluorescence staining. The assay has been performed by Icahn School of Medicine at Mount Sinai.; format: functional, organism-based, Chlorocebus sabaeus, VeroE6/TMPRSS2; details: for EC90: P-gp concentration 2 uM, P-gp inhibitor Elacidar
# [3] = test system: dengue virus type 2; experiment: as §1, with “Dengue” for “Zika”, “type 2 Thailand/16681/84” for “PRVABC59”, “cells (cotreated with P-gp inhibitor, Elacridar).” for “cells.”; format: organism-based, Chlorocebus sabaeus, VeroE6/TMPRSS2; details: Dengue virus
# [4] = test system: dengue virus type 2; experiment: as §1, with “Dengue” for “Zika”, “type 2 Thailand/16681/84” for “PRVABC59”; format: organism-based, Chlorocebus sabaeus; details: for pEC50: VeroE6/TMPRSS2
# [5] = test system: dengue virus type 2; experiment: Functional assay to measure dose dependent changes in antiviral-drug inhibitory efficacy against Dengue virus type 2 New Guinea C in Vero E6 miRFP670 cells (cotreated with P-gp inhibitor, CP100356). Cells are treated with antiviral candidates that are serially diluted, following infection, cells are fixed. EC50 is reported via analysis of fluorescence intensity using high-content imager. The …; format: organism-based, Chlorocebus sabaeus, Vero C1008; details: Dengue virus, Vero C1008
# [6] = test system: Zika virus; experiment: Functional CPE-based assay to measure dose dependent changes in antiviral-drug inhibitory efficacy against Zika virus MR766 in Vero E6 miRFP670 cells. Cells are treated with antiviral candidates that are serially diluted. EC50 is reported via analysis of MTS assay as a readout of CPE. The assay has been performed by KU Leuven.; format: organism-based, Chlorocebus sabaeus, Vero C1008; details: Zika virus
compound,measurement,setting,value
O=C(Nc1cc(Cl)cc(C(=O)Nc2cccc(-c3nnn[nH]3)c2)c1)OCc1ccccc1,pEC50,[1],< 4.30
same,EC90,"[1]; VeroE6/TMPRSS2, Maximum measured 198.65 %, Minimum measured 79.352 %",> 50 µM
same,pEC50,"[2]; Zika virus, VeroE6/TMPRSS2",5.57
same,EC90,"[2]; Zika virus, VeroE6/TMPRSS2, Baseline response 0 %, Hill slope -0.321, Maximum measured 94.477 %, Maximum response 100 %, Minimum measured 40.195 %, R squared 0.392",> 16.7 µM
same,pEC50,[3]; VeroE6/TMPRSS2,4.31
same,EC90,"[3]; VeroE6/TMPRSS2, Baseline response 0 %, Hill slope -12.435, Maximum measured 130.492 %, Maximum response 60 %, Minimum measured 25.847 %, P-gp concentration 2 uM, R squared 0.033, P-gp inhibitor Elacidar",> 50 µM
CCc1cc(C(=O)Nc2cccc(CN)c2)sc1-c1ccc(Cl)cc1,pEC50,[4],7.40
same,EC90,"[4]; VeroE6/TMPRSS2, Baseline response 0 %, EC90 CI (lower) 0 uM, EC90 CI (upper) […] uM, Hill slope -0.657, Maximum measured 73.173 %, Maximum response 100 %, Minimum measured 2.32 %, R squared 0.658",1.14 µM
same,pEC50,"[2]; Zika virus, VeroE6/TMPRSS2",< 4.30
same,EC90,"[2]; Zika virus, VeroE6/TMPRSS2, Baseline response 0 %, Hill slope -0.283, Maximum measured 157.581 %, Maximum response 100 %, Minimum measured 60.948 %, R squared 0.14",> 50 µM
same,pEC50,[5],5.10
same,EC90,"[5]; Baseline response 0 %, EC90 CI (lower) 5.869 uM, EC90 CI (upper) 6.978 uM, Hill slope -10.543, Maximum measured 99.815 %, Maximum response 100 %, Minimum measured 0.348 %, P-gp concentration 500 nM, R squared 0.992, P-gp inhibitor CP100356",9.71 µM
same,pEC50,[3]; VeroE6/TMPRSS2,5.83
same,EC90,"[3]; VeroE6/TMPRSS2, Baseline response 0 %, Hill slope -0.734, Maximum measured 115.481 %, Maximum response 100 %, Minimum measured 26.383 %, P-gp concentration 2 uM, R squared 0.805, P-gp inhibitor Elacidar",> 5.56 µM
Cc1cc(-c2ccc([C@@H](NC(=O)OCc3ccccc3)C(=O)Nc3cccc(CN)c3)cc2)cs1,pEC50,[4],6.84
same,EC90,"[4]; VeroE6/TMPRSS2, Baseline response 0 %, Hill slope -0.322, Maximum measured 78.243 %, Maximum response 100 %, Minimum measured 15.352 %, R squared 0.327",> 5.56 µM
same,pEC50,[1],< 4.30
same,EC90,"[1]; VeroE6/TMPRSS2, Maximum measured 207.969 %, Minimum measured 85.523 %",> 50 µM
same,pEC50,"[2]; Zika virus, VeroE6/TMPRSS2",< 4.30
same,EC90,"[2]; Zika virus, VeroE6/TMPRSS2, Maximum measured 84.809 %, Minimum measured 8.553 %",> 50 µM
same,pEC50,[3]; VeroE6/TMPRSS2,< 5.26
same,EC90,"[3]; VeroE6/TMPRSS2, Maximum measured 25.792 %, Minimum measured 7.149 %, P-gp concentration 2 uM, P-gp inhibitor Elacidar",> 5.56 µM
NCc1cccc(C(=O)Nc2cc(Cl)cc(NC(=O)OCc3ccccc3)c2)c1,pEC50,[4],< 5.26
same,EC90,"[4]; VeroE6/TMPRSS2, Maximum measured 181.372 %, Minimum measured 88.426 %",> 5.56 µM
same,EC90,"[2]; Baseline response 0 %, Hill slope -0.985, Maximum measured 92.072 %, Maximum response 100 %, Minimum measured 6.61 %, R squared 0.567",> 5.56 µM
same,EC90,"[2]; Zika virus, VeroE6/TMPRSS2, Baseline response 0 %, Hill slope -0.721, Maximum measured 131.562 %, Maximum response 100 %, Minimum measured 27.938 %, R squared 0.396",> 3.33 µM
same,pEC50,[2]; veroe6/tmprss2,5.68 and 6.06
same,pEC50,[3]; VeroE6/TMPRSS2,5.50
same,EC90,[3]; VeroE6/TMPRSS2,5.42 µM
O=C(O)c1cc(Cl)ccc1NS(=O)(=O)c1ccc(Oc2ccccc2Cl)cc1,pEC50,[4],> 7.64
same,EC90,"[4]; VeroE6/TMPRSS2, Baseline response 0 %, Hill slope -0.289, Maximum measured 50.892 %, Maximum response 100 %, Minimum measured 16.572 %, R squared 0.294",> 5.56 µM
same,pEC50,[1],< 4.30
same,EC90,"[1]; VeroE6/TMPRSS2, Baseline response 0 %, Hill slope 0.308, Maximum measured 143.489 %, Maximum response 100 %, Minimum measured 67.888 %, R squared 0.041",> 50 µM
O=C(Nc1cc(Cl)cc(C(=O)Nc2cccc(-n3nn[nH]c3=O)c2)c1)OCc1ccccc1,pEC50,[1],4.34
same,EC90,"[1]; VeroE6/TMPRSS2, Baseline response 0 %, Hill slope -14.888, Maximum measured 123.167 %, Maximum response 100 %, Minimum measured 20.725 %, R squared 0.524",> 50 µM
same,pEC50,[6]; Vero C1008,< 4.30
same,EC90,"[6]; Vero C1008, Baseline response 0 %, Hill slope -0.529, Maximum measured 3.199 %, Maximum response 100 %, Minimum measured -1.205 %, R squared 0.435",> 50 µM
same,pEC50,"[2]; Zika virus, VeroE6/TMPRSS2",6.08
same,EC90,"[2]; Zika virus, VeroE6/TMPRSS2, Baseline response 0 %, Hill slope -0.989, Maximum measured 91.506 %, Maximum response 100 %, Minimum measured 6.41 %, R squared 0.606",> 5.56 µM
same,pEC50,[5],4.36
same,EC90,[5],48.8 µM
same,pEC50,[3]; VeroE6/TMPRSS2,4.42
same,EC90,"[3]; VeroE6/TMPRSS2, Baseline response 0 %, Hill slope -4.745, Maximum measured 70.688 %, Maximum response 60 %, Minimum measured 12.915 %, P-gp concentration 2 uM, R squared 0.282, P-gp inhibitor Elacidar",> 50 µM
